In patent US20100016275A1, “NOVEL COMPOUND 395” (priority 2008, published 2010):

How the values were obtained:
[1] = Bioavailability (F) in the rat; type: in vivo; details: plasma, 3 mg/kg; male rat, oral vs iv AUC, dose normalised
Source text: Bioavailability (F) in the Rat
This describes the methods used to obtain in vivo pharmacokinetic parameters in the male rat. It is applicable for use with any compound but may need modification based on such parameters as solubility, assay sensitivity, anticipated clearance and half-life, when the default formulation, dose level or sampling intervals may be inappropriate. The method described here represents a standard approach from which justified and documented modifications can be made. This method also allows for single compounds or mixtures (cassettes) to be administered.
A standard dose solution of 1 mg·mL^−1 was prepared. The recommended dose vehicle (if the compound was not sufficiently soluble in isotonic saline) was 50% PEG 400:50% sterile water. The required mass of compound was dissolved in the PEG400 before addition of the water. […]
The concentration of the analyte(s) were determined in plasma quantitative by mass spectrometry.
Pharmacokinetic data analysis and tabulation was achieved using WinNonlin and Excel. […] Bioavailability (F) was calculated from the ratio of the iv and oral AUC (the integral of the plasma concentration time curve) once dose normalised.

human plasma proteins = assay: Measurement of plasma protein binding (PPB) by equilibrium dialysis; type: in vitro ADME; details: human plasma; for Human plasma protein binding PPB (% free): equilibrium dialysis, 37° C., pH 7.4
Description: (§1) Measurement of Plasma Protein Binding (PPB)
(§2) The extent of binding of a drug to plasma proteins is a crucial factor in determining its in vivo potency and pharmacokinetics. The method used for determining the extent of plasma protein binding involves equilibrium dialysis of the compound between plasma and buffer at 37° C. The concentrations of compound in the plasma and buffer are then determined using high pressure liquid chromatography (HPLC) with mass spectroscopy (MS) detection. The dialysis method involves the use of mixtures of up to 10 compounds simultaneously. It has been shown that at the concentrations used in the assay, there is no significant difference in the results when compounds are run singly or in mixtures.
(§3) Membranes (molecular weight cut-off 5000) were first prepared by soaking in the dialysis buffer for a minimum of 1 hour. The dialysis membranes were then mounted into the dialysis cells.
(§4) Stock solutions of compounds in dimethylsulphoxide (DMSO) were prepared. This, and all subsequent liquid handling steps, were normally done using a Tecan liquid handling robot. Mixtures of up to five compounds were used. The concentration of each compound in a mixture was normally 1 mM. The mixtures were chosen such that each mixture contains compounds that all have at least a 5 unit difference in molecular weight from one another.
(§5) Frozen plasma (EDTA anticoagulant) was normally used for the human plasma binding experiment. The pH of the plasma was adjusted to 7.4 using 1 M HCl immediately before use.
(§6) The stock DMSO solution of compounds (7.5 μL) was then added to the dialysis cells along with plasma (750 μl). This was done in duplicate for each mixture. This gave a 1% DMSO in plasma solution with each compound at a concentration of 10 μM (if the stock solution was the standard 1 mM). The dialysis cells were then sealed, secured in a Dianorm rotator unit and equilibrated for 18 hours at 37° C. While the dialysis cells were being equilibrated, the DMSO stock solutions were used for generating optimised HPLC/MS methods for use in the final analysis of the plasma and buffer samples.
(§7) After equilibration, the cells were opened and a Tecan liquid handling robot was used to remove aliquots from the plasma and buffer sides of each of the dialysis cells. Blank plasma was then added to the buffer samples and buffer added to the plasma samples such that each sample was in a matrix of 6-fold diluted plasma. Standards were then prepared from the DMSO stock solutions and blank 6-fold diluted plasma. The concentrations of the four standards were normally 50 nM, 150 nM, 500 nM and 2500 nM.
(§8) The samples and standards were then analysed using HPLC with MS detection, which allows deconvolution of the mixtures of compounds. The HPLC method involved a forward flushing column switching technique that allows direct injection of the diluted plasma.
(§9) The chromatograms were processed using MassLynx software that automatically i 5 calculates a calibration curve for each compound in a mixture and then interpolates the concentrations of buffer and plasma samples. These concentrations still need corrections for the dilution of the plasma. The percentage bound was calculated from the MassLynx data using the following equation: […]
(§10) The factor of 1.2 in the numerator accounts for the small dilution of the aqueous samples with plasma. The factor of 6 in the denominator serves to correct for the 6-fold dilution of the plasma samples with buffer.
(§11) The % free (100-% bound) for each compound was calculated from the concentration data, and then recorded.

[2] = as above; type: in vitro ADME, human; details: human, plasma, pH 7.4, human plasma, equilibrium dialysis, 37° C., pH 7.4; read-out: Human plasma protein binding PPB (% free)
Description: as §1, §2, §3, §4, §5, §6, §7, §8, §9, §10, §11

Structure (SMILES)	bioavailability [1] [%]	free fraction in human plasma (in words) (human plasma proteins)	fraction unbound at 18 h, 10 µM [2]	Human plasma protein binding PPB (% free) (human plasma proteins)
C[C@@H](Nc1cc(NS(=O)(=O)N2CCC2)nc(SCc2cccc(F)c2F)n1)[C@@H](O)CO [Example 1, N-(2-[(2,3-difluorobenzyl)thio]-6-{[(1R,2R)-2,3-dihydroxy-1-methylpropyl]amino}pyrimidin-4-yl)azetidine-1-sulfonamide]	49	favourable free fraction in human plasma	0.019	
Cc1cccc(CSc2nc(N[C@H](C)CO)cc(NS(C)(=O)=O)n2)c1F [Example 39]	44		0.01	
Cc1cccc(CSc2nc(N[C@H](C)CO)cc(NS(=O)(=O)N3CCC3)n2)c1F [Example 40]			< 0.002	
Cc1ccc(CSc2nc(N[C@H](C)CO)cc(NS(=O)(=O)N3CCC3)n2)c(F)c1C [Example 41]				0.6
Cc1ccc(CSc2nc(N[C@H](C)CO)cc(NS(=O)(=O)N3CCC3)n2)c(F)c1C [Example 42]				<0.2
